According to patent US4698352A, “4-oxo-1,4-dihydronicotinic acid derivatives, salts thereof, and antibacterial agents containing the same” (Toyama Chemical Co., Ltd., priority 1982, dated 1987):
≈ marks a conversion by molar mass, not a printed value. Where two headings read alike, the source gives them in different places.

How the values were obtained:
Assay in all cases: Antibacterial activity (MIC), agar dilution
Assay type in all cases: cell-based
Ps. aeruginosa GN3379* = conditions: Pseudomonas aeruginosa, 20 h; Ps. aeruginosa GN3379, penicillinase-producing; 10^6 cells per ml; read-out: MIC
Source text: (§1) The amount of bacteria inoculated was 10^4 cells per plate (10^6 cells per ml).
(§2) * Penicillinase-producing bacteria

E. coli TK-3* = conditions: Escherichia coli, 20 h
Source text: as §1, §2

Kl. pneumoniae Y-4* = conditions: Klebsiella pneumoniae, 20 h, Kl. pneumoniae Y-4, penicillinase-producing; 10^6 cells per ml; read-out: MIC
Source text: as §1, §2

St. aureus F-137* = conditions: Staphylococcus aureus, 20 h, St. aureus F-137, penicillinase-producing; 10^6 cells per ml; read-out: MIC
Source text: as §1, §2

E. coli NIHJ JC-2 = conditions: Escherichia coli, NIHJJC2, 20 h, E. coli NIHJ JC-2; 10^6 cells per ml; 37° C., 20 hours; read-out: MIC
Source text: as §1

Ent. cloacae IID977 = conditions: Enterobacter cloacae, IID977, 20 h
Source text: as §1

St. aureus FDA209P = conditions: Staphylococcus aureus, FDA209P, 20 h, St. aureus FDA209P; 10^6 cells per ml; 37° C., 20 hours; read-out: MIC
Source text: as §1

Kl. pneumoniae Y-50 = conditions: Klebsiella pneumoniae, Y50, 20 h, 10^6 cells per ml, 37° C., read-out: MIC
Source text: as §1

Ps. aeruginosa S-68 = conditions: Pseudomonas aeruginosa
Source text: as §1

Pro. mirabilis T-111 = conditions: Proteus mirabilis, T111, 10^6 cells per ml, 37° C., 20 hours, read-out: MIC
Source text: as §1

E. coli TK-111 = conditions: Escherichia coli, TK111, 20 h, E. coli TK-111; 10^6 cells per ml; 37° C., 20 hours; read-out: MIC
Source text: as §1

Kl. pneumoniae Y-41 = conditions: Klebsiella pneumoniae, Y41, 10^6 cells per ml, 37° C., 20 hours, read-out: MIC
Source text: as §1

Pro. vulgaris GN3027 = conditions: Proteus vulgaris, GN3027, 20 h, Pro. vulgaris GN3027; 10^6 cells per ml; 37° C., 20 hours; read-out: MIC
Source text: as §1

Aci. antitratus A-6 = conditions: 20 h, Aci. antitratus A-6; 10^6 cells per ml; 37° C., 20 hours; read-out: MIC
Source text: as §1

Pro. morganii T-216 = conditions: Morganella morganii, 37° C.
Source text: as §1

Ps. aeruginosa IFO3445 = conditions: Pseudomonas aeruginosa
Source text: as §1

Ps. aeruginosa GN918** = conditions: Pseudomonas aeruginosa, Ps. aeruginosa GN918, cephalospolinase-producing, 10^6 cells per ml
Source text: as §1
(§3) ** Cephalospolinase-producing bacteria

Pro. vulgaris GN76** = conditions: Proteus vulgaris, 20 h; Pro. vulgaris GN76, cephalospolinase-producing; 10^6 cells per ml; read-out: MIC
Source text: as §1, §3

E. coli GN5482** = conditions: Escherichia coli, 20 h; E. coli GN5482, cephalospolinase-producing; 10^6 cells per ml; read-out: MIC
Source text: as §1, §3

[1] = E. coli TK-3, penicillinase-producing, 10^6 cells per ml, read-out: MIC
[2] = Ent. cloacae IID977, 10^6 cells per ml, 37° C., 20 hours, read-out: MIC

| SMILES | MIC (Ps. aeruginosa GN3379*) | MIC (Kl. pneumoniae Y-4*) | MIC (St. aureus F-137*) | MIC (E. coli NIHJ JC-2) | MIC (St. aureus FDA209P) | MIC (Kl. pneumoniae Y-50) | MIC (Ps. aeruginosa S-68; S68, 20 h) | MIC (Pro. mirabilis T-111) | MIC (E. coli TK-111) | MIC (Kl. pneumoniae Y-41) | MIC (Pro. vulgaris GN3027) | MIC (Aci. antitratus A-6) | MIC (Pro. morganii T-216; T216, 20 h, 10^6 cells per ml) | MIC (Ps. aeruginosa IFO3445; IFO3445, 20 h) | MIC (Pro. vulgaris GN76**) | MIC (E. coli GN5482**) | MIC (E. coli TK-3*; [1]) | MIC (Ent. cloacae IID977; [2]) | MIC (Ps. aeruginosa GN918**; GN918, 20 h) | further results |
| --- | --- | --- | --- | --- | --- | --- | --- | --- | --- | --- | --- | --- | --- | --- | --- | --- | --- | --- | --- | --- |
| Cc1cc(O)ccc1-n1cc(C(=O)O)c(=O)cc1C1=CCCC1 | 25 µg/mL (≈ 80.3 µM) | 6.25 µg/mL (≈ 20.1 µM) | 0.78 µg/mL (≈ 2.51 µM) | 0.78 µg/mL (≈ 2.51 µM) | 0.78 µg/mL (≈ 2.51 µM) | 0.39 µg/mL (≈ 1.25 µM) | 6.25 µg/mL (≈ 20.1 µM) | 3.13 µg/mL (≈ 10.1 µM) | 0.2 µg/mL (≈ 0.642 µM) | 1.56 µg/mL (≈ 5.01 µM) | 0.1 µg/mL (≈ 0.321 µM) | 0.78 µg/mL (≈ 2.51 µM) | 1.56 µg/mL (≈ 5.01 µM) | 6.25 µg/mL (≈ 20.1 µM) | 0.78 µg/mL (≈ 2.51 µM) | 0.1 µg/mL (≈ 0.321 µM) | – | – | – | MIC (E. coli TK-3*): 1.56 µg/mL (≈ 5.01 µM); MIC (Ent. cloacae IID977): 1.56 µg/mL (≈ 5.01 µM); MIC (Ps. aeruginosa GN918**; 20 h, read-out: MIC): 3.13 µg/mL (≈ 10.1 µM) |
| CC(=O)Oc1ccc(-n2cc(C(=O)O)c(=O)cc2-c2ccc(-c3cccs3)cc2)cc1 | 3.13 µg/mL (≈ 7.25 µM) | 1.56 µg/mL (≈ 3.62 µM) | ≤ 0.05 µg/mL | 0.2 µg/mL (≈ 0.464 µM) | ≤ 0.05 µg/mL | 0.39 µg/mL (≈ 0.904 µM) | 1.56 µg/mL (≈ 3.62 µM) | 0.39 µg/mL (≈ 0.904 µM) | ≤ 0.05 µg/mL | 0.78 µg/mL (≈ 1.81 µM) | ≤ 0.05 µg/mL | ≤ 0.05 µg/mL | – | 1.56 µg/mL (≈ 3.62 µM) | 0.39 µg/mL (≈ 0.904 µM) | ≤ 0.05 µg/mL | 0.39 µg/mL (≈ 0.904 µM) | 0.39 µg/mL (≈ 0.904 µM) | 1.56 µg/mL (≈ 3.62 µM) | MIC (Pro. morganii T-216; T216, 10^6 cells per ml, 20 hours, read-out: MIC): 0.39 µg/mL (≈ 0.904 µM) |
| CC(=O)Oc1ccc(-n2cc(C(=O)O)c(=O)cc2-c2ccc(N(C)C)cc2)c(C)c1 | 6.25 µg/mL (≈ 15.4 µM) | 1.56 µg/mL (≈ 3.84 µM) | ≤ 0.05 µg/mL | 0.2 µg/mL (≈ 0.492 µM) | ≤ 0.05 µg/mL | 0.39 µg/mL (≈ 0.96 µM) | – | 0.78 µg/mL (≈ 1.92 µM) | ≤ 0.05 µg/mL | 1.56 µg/mL (≈ 3.84 µM) | 0.39 µg/mL (≈ 0.96 µM) | ≤ 0.05 µg/mL | 1.56 µg/mL (≈ 3.84 µM) | – | 0.39 µg/mL (≈ 0.96 µM) | ≤ 0.05 µg/mL | 0.39 µg/mL (≈ 0.96 µM) | 0.78 µg/mL (≈ 1.92 µM) | 1.56 µg/mL (≈ 3.84 µM) | MIC (Ps. aeruginosa S-68; S68, Ps. aeruginosa S-68, 10^6 cells per ml, 37° C., 20 hours, read-out: MIC): 3.13 µg/mL (≈ 7.7 µM); MIC (Ps. aeruginosa IFO3445; Ps. aeruginosa IFO3445, 10^6 cells per ml, 37° C., 20 hours, read-out: MIC): 6.25 µg/mL (≈ 15.4 µM) |
